According to article PMC9698730 (Molecules, 2022):
Values joined by “and” are separate entries in the source; they are usually repeats but may differ in a detail not shown here. Equal values may be shown once. “Also recorded” adds a separate entry of the source. Read-outs that look alike come from different tables or passages of the source.

Assays:
RNA-FL complex = assay type: binding, SARS-CoV-2; settings: for competition with RNA / nucleic acids binding to FL: DLS, in words
Experimental: To further address whether the ligands may modify the oligomeric status of the FL protein, we performed dynamic light scattering experiments. […] We then tested whether ligand binding to FL could be competitive with nucleic acids binding.
(§1) The experiments were performed on a Malvern nanosizer apparatus. The temperature was set at 20 °C, and 10 scans with a duration of 10 s each were acquired in duplicate for each time and sample. The size distribution in the intensity of the scattered light was obtained using the Cumulants method from the instrumental software, yielding the hydrodynamic diameter. The N NTD concentration was in the range of 40–60 μM, the FL concentration was in the range of 1 to 10 µM in 20 mM Tris buffer at pH = 7.9 containing 100 mM NaCl. The melting experiments were performed at a heating rate of 1 °C/min over the range 30 °C to 65 °C in sealed disposable cuvettes. The apparent melting temperature, Tm, was determined by the first derivative of the melting curve.

FL [1] = assay type: binding, SARS-CoV-2; settings: for Size (nm) Intensity / Size (nm) Volume: pH 7.9
DNA-FL complex = assay: Dynamic light scattering, competition with DNA binding to FL; parameters: species or system SARS-CoV-2; settings: for Size, Intensity: percentage in parentheses / Size, Volume: percentage in parentheses / Size (nm) Volume / Size (nm) Intensity: DNA + ligand, 4 µM, FL 4 µM; for Size (nm) Volume: without ligand 15.7 ± 1.2; for Size (nm) Intensity: without ligand 25.3 ± 3.1
Experimental: To further address whether the ligands may modify the oligomeric status of the FL protein, we performed dynamic light scattering experiments. FL (2 µM) presented a main peak at 12.0 ± 0.6 nm in volume (14 nm in intensity); the size of the complex decreased to 10.3 and 7.8 ± 0.3 nm upon addition of 2 µM and 6 µM enkephalin, respectively (Figure 6D). […] We then tested whether ligand binding to FL could be competitive with nucleic acids binding.
as §1

viral replication = settings: cited from earlier work
NTD wt [2] = molecular target: T1, NTD wt (Severe acute respiratory syndrome coronavirus 2, UniProt P0DTC9); assay type: binding
FL [3] = assay type: binding
[4] = tested on: patients hospitalized for mild and moderate COVID-19; settings: human, in vivo; cited from earlier work
SARS-CoV-2 = settings: cited from earlier work
[5] = tested on: model of reconstituted lung epithelium; settings: cited from earlier work
NTD wt [6] = molecular target: T1, NTD wt; settings: cited from earlier work

Compound	competition with RNA / nucleic acids binding to FL (RNA-FL complex)	Size, Intensity: percentage in parentheses (FL [1])	Size, Volume: percentage in parentheses (FL [1])	effect on size (oligomeric status) of FL (FL [1])	Size (nm) Intensity (FL [1])	Size (nm) Volume (FL [1])	effect on viral replication (viral replication; ref [17],[18],[34],[35])	other results
Leu-enkephalin	competitive with nucleic acids binding to FL; also recorded: consistent with a competition	12.6 ± 0.6 (31%) 8.7 ± 0.2 (40%)	11.3 ± 0.6 (96%) 8.0 ± 0.3 (100%)	decreased its size as compared to the size of N alone	12.6 ± 0.6 (31%) 8.7 ± 0.2 (40%) nm	11.3 ± 0.6 (96%) 8.0 ± 0.3 (100%) nm	–	effect on size of N-DNA complex, in words (DNA-FL complex; DLS, Figure 6E): the size of the N-DNA complex was reduced; Size, Intensity: percentage in parentheses (DNA-FL complex): 89%; Size, Volume: percentage in parentheses (DNA-FL complex): 99%; Size (nm) Volume (DNA-FL complex): 9.0 ± 1.7 nm; Size (nm) Intensity (DNA-FL complex): 10.5 ± 1.2 nm
Hemin	–	–	–	–	–	–	decrease viral replication	effect on viral replication (viral replication; hemin binding to N, ref [32]): reduce viral replication
RPKPQQF-OH [Substance P (1-7), Substance P (1-7) RPKPQQF-OH]	competitive with nucleic acids binding to FL; also recorded: consistent with a competition	10.3 ± 0.6 (50%) 8.0 ± 1.0 (76%)	9.5 ± 0.6 (98%) 7.2 ± 1.1 (99%)	a larger decrease	10.3 ± 0.6 (50%) 8.0 ± 1.0 (76%) nm	9.5 ± 0.6 (98%) 7.2 ± 1.1 (99%) nm	–	binding to NTD by SPR, in words (NTD wt [2]): observed; Size, Intensity: percentage in parentheses (RNA-FL complex; RNA + ligand, 4 µM, FL 4 µM): 75%; Size, Volume: percentage in parentheses (RNA-FL complex; RNA + ligand, 4 µM, FL 4 µM): 97%; Size (nm) Volume (RNA-FL complex; RNA + ligand, 4 µM, FL 4 µM, without ligand 15.1 ± 1.1): 11.3 ± 0.6 nm; Size (nm) Intensity (RNA-FL complex; RNA + ligand, 4 µM, FL 4 µM, without ligand 21.5 ± 2.0): 16.1 ± 0.6 nm; binding to FL by SPR, in words (FL [3]): bound the N FL protein as measured by SPR; also recorded: observed; Size, Intensity: percentage in parentheses (DNA-FL complex): 70%; Size, Volume: percentage in parentheses (DNA-FL complex): 91%; Size (nm) Volume (DNA-FL complex): 10.1 ± 0.6 nm; Size (nm) Intensity (DNA-FL complex): 13.8 ± 0.6 nm
COc1ccc2c(c1)c(CC(=O)O)c(C)n2C(=O)c1ccc(Cl)cc1 [Indomethacin, indomethacin]	consistent with a competition	11.0 ± 0.4 (30%) 6.7 ± 0.3 (60%)	10.3 ± 0.5 (100%) 6.3 ± 0.4 (96%)	a larger decrease	11.0 ± 0.4 (30%) 6.7 ± 0.3 (60%) nm	10.3 ± 0.5 (100%) 6.3 ± 0.4 (96%) nm	decrease viral replication	patient recovery [4]: helped the patients to recover
tetrahydrofolate [THF]	–	–	–	–	–	–	–	effect on viral replication (viral replication; ref [35]): reduction of viral replication
COc1ccc2cc([C@H](C)C(=O)O)ccc2c1 [Naproxen, naproxen]	–	12.2 ± 0.5 (40%) 8.7 ± 0.3 (60%)	11.3 ± 0.4 (99%) 8.9 ± 0.3 (96%)	the same trend was observed	12.2 ± 0.5 (40%) 8.7 ± 0.3 (60%) nm	11.3 ± 0.4 (99%) 8.9 ± 0.3 (96%) nm	–	viral load of infected cells (SARS-CoV-2): reduced the viral load of infected cells; protection of lung cells against viral injury [5]: protected lung cells against viral injury; replication and inflammation in reconstituted lung epithelium [5]: inhibited replication and reduced inflammation; effect on viral replication (viral replication): decrease viral replication; binding to N-terminal domain in vitro (NTD wt [6]): bound to SARS-CoV-2 N-terminal domain (NTD) in vitro
Dihydrofolate [DHF]	consistent with a competition	–	–	–	–	–	decrease viral replication	Kd (NTD wt [2]; SPR, NTD, ligand range 0.3–10.0 µM, 20 mM HEPES, 100 mM NaCl, 0.05% Tween): ~1000 nM and 1000 nM; binding to FL by SPR, in words (FL [3]): binding of DHF to the full-length protein was smaller; effect on viral replication (viral replication; ref [35]): reduction of viral replication
